For two compounds, IC50 results are on record in ChEMBL document CHEMBL1137215, “A 4'-C-ethynyl-2',3'-dideoxynucleoside analogue highlights the role of the 3'-OH in anti-HIV active 4'-C-ethynyl-2'-deoxy nucleosides” (J Med Chem, 2004).

Usually IC50 stands for the concentration that inhibits the measured activity by half. Higher therefore signals weaker potency in that assay.

The subject of assay [1] is MT4. Kind of assay: Inhibitory concentration against HIV LAI in MT-4 cells when tested at a range of 0.001-10 uM concentration; Inactive. It counts as functional, cell-based, Homo sapiens.
Assay [2] has as its system MT2. Briefly: Inhibitory concentration against HIV LAI in MT-2 cells when tested at a range of 0.001-10 uM concentration; Inactive. It counts as functional, cell-based, Homo sapiens.
Assay [3] relates to MT4. Briefly: Inhibitory concentration of compound against HIV LAI in MT-4 cells when tested at a range of 0.001-10 uM concentration. Particulars: Homo sapiens; call rule not given here. It counts as functional, cell-based.
Assay [4] deals with MT2. Kind of assay: Inhibitory concentration of compound against HIV LAI in MT-2 cells when tested at a range of 0.001-10 uM concentration. It counts as functional, cell-based. As to conditions: Homo sapiens.

Regarding `C#C[C@@]1(CO)CCC(n2ccc(N)nc2=O)O1` (some centres undefined), the 50% inhibitory concentration (IC50) result with MT4 [1] and in the assay with MT2 [2] was “Not Active” throughout.
For the compound `CC(C)c1nc(CN(C)C(=O)N[C@H](C(=O)N[C@@H](Cc2ccccc2)C[C@H](O)[C@H](Cc2ccccc2)NC(=O)OCc2cncs2)C(C)C)cs1` [RITONAVIR], the concentration for half-maximal inhibition (IC50) with MT4 [3] and in the assay on MT2 [4] was 10 nM throughout.
